Results on 18 molecules are retold here after patent US8361996B2, “Imidazolyl substituted steroidal and indan-1-one derivatives” (Council of Scientific and Industrial Research, priority 2005, dated 2013).

Read-outs that look alike come from different tables or passages of the source.

In one data set the target is T1, aromatase (CYP19) (Homo sapiens, UniProt P11511).
T1 construct: The enzyme was obtained from the microsomal fraction of freshly delivered human term placental tissue; from tissue; host or cells: human term placenta, microsomal fraction
T1 sequence (P11511 1-503): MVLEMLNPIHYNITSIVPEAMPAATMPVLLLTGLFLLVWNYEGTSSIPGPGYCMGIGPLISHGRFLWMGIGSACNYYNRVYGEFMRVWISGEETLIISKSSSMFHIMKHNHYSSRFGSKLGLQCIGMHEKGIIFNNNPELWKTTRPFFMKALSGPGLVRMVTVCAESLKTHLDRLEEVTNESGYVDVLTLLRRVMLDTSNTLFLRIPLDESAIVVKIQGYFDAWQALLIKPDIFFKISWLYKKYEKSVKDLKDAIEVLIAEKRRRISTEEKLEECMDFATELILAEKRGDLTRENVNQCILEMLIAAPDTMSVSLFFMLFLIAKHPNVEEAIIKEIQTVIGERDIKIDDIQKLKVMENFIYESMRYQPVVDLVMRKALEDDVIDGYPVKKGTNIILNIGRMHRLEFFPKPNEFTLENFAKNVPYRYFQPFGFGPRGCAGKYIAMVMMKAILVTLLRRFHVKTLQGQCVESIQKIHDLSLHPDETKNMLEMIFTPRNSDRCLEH
Description: Inhibition of aromatase, human placental microsomes, 3H2O release. Type of data set: biochemical.

Setting [1] is: Substrate: 1β 3H-androstenedione/androstenedione 500 nm.
Setting [2] is: human placental microsomes and [1β,2β-3H] testosterone.

`COc1cc(C=C2C[C@H]3[C@@H]4CC=C5C[C@@H](O)CC[C@]5(C)[C@H]4CC[C@]3(C)C2=O)ccc1OCCCn1ccnc1`: the melting point lay in the range of 199 to 201 °C.
For `COc1cc(C=C2C[C@H]3[C@@H]4CC=C5C[C@@H](OC(C)=O)CC[C@]5(C)[C@H]4CC[C@]3(C)C2=O)ccc1OCCCn1ccnc1`, the melting point lay within 109 to 111 °C.
Still for that read-out and setting: in the case of `COc1cc(C=C2C[C@H]3[C@@H]4CC=C5C[C@@H](OC(C)=O)CC[C@]5(C)[C@H]4CC[C@]3(C)[C@H]2OC(C)=O)ccc1OCCCn1ccnc1` it was 163 to 168 °C.
Still for that read-out and setting: with `C[C@]12CC[C@H](O)CC1=CC[C@@H]1[C@@H]2CC[C@]2(C)C(=O)C(=Cc3cccc(OCCCn4ccnc4)c3)C[C@@H]12` the figure was 211 to 212 °C; with `CC(=O)O[C@H]1CC[C@@]2(C)C(=CC[C@H]3[C@@H]4CC(=Cc5cccc(OCCCn6ccnc6)c5)[C@H](OC(C)=O)[C@@]4(C)CC[C@@H]32)C1`, 97 to 99 °C; with `C[C@]12CC[C@H]3[C@@H](CC=C4C[C@@H](O)CC[C@@]43C)[C@@H]1C[C@H](n1ccnc1)[C@@H]2O`, 285 to 287 °C.
The same measure, in the same setting: with `CC(=O)O[C@H]1CC[C@@]2(C)C(=CC[C@H]3[C@@H]4C[C@H](n5ccnc5)[C@H](OC(C)=O)[C@@]4(C)CC[C@@H]32)C1` the figure was 197 to 199 °C.
The molecule `O=C1/C(=C/c2cccc(OCCCn3ccnc3)c2)Cc2ccccc21` [Compound 2, 2-[3-(3-Imidazol-1-yl-propoxy)-benzylidene]-indan-1-one] gave a melting point of 48 to 50 °C. For the same molecule, the “Inhibition on CYP19a RP: Relative potency; relative to aminoglutethimide (=1)” value (“Inhibition on CYP19a RP: Relative potency … (=1)” for short) on aromatase (CYP19) (setting [1]) turned out to be 42.5. The “aromatase inhibitory activity (in words)” value on aromatase (CYP19) (setting [2]) is listed as “good aromatase inhibitory activity”.
The matching figures for `O=C1/C(=C/c2ccccc2OCCCn2ccnc2)Cc2ccccc21` [Compound 4, 2-[2-(3-Imidazol-1-yl-propoxy)-benzylidene]-indan-1-one]: 76 to 78 °C, 26.6 and “good aromatase inhibitory activity”.
The like results for `COc1ccc(/C=C2\Cc3ccccc3C2=O)cc1OCCCn1ccnc1` [Compound 6, 2-[3-(3-Imidazol-1-ylpropoxy)-4-methoxybenzylidene)indan-1-one] were, in that order, 176 to 180 °C, 22.5 and “good aromatase inhibitory activity”.
`COc1cc(/C=C2\Cc3ccccc3C2=O)ccc1OCCCn1ccnc1` [Compound 8, 2-[4-(3-Imidazol-1-ylpropoxy)-3-methoxybenzylidene)indan-1-one] yielded a melting point of 123 to 127 °C. In addition, on aromatase (CYP19) (setting [1]), the “Inhibition on CYP19a RP: Relative potency … (=1)” value was determined as 54.1. The “aromatase inhibitory activity (in words)” value on aromatase (CYP19) (setting [2]) is on record as “good aromatase inhibitory activity”. Also, on aromatase (CYP19) (human placental microsomes and [1β,2β-3H] testosterone, read-out: IC50 for the aromatase inhibitory activity), the IC50 is 0.55 µM.
`O=C1C(=Cc2cccc(OCCn3ccnc3)c2)Cc2ccccc21` [Compound 10, 2-[3-(2-Imidazol-1-ylethoxy)-benzylidene]indan-1-one] yielded a melting point of 218 to 220 °C.
`COc1cc(/C=C2\C[C@H]3[C@@H]4CC=C5C[C@@H](O)CC[C@]5(C)[C@H]4CC[C@]3(C)[C@H]2O)ccc1OCCCn1ccnc1` [Compound 14, 16-[4-{3-(Imidazol-1-yl)propoxy}-3-methoxybenzylidene]-5-androstene-3β,17β-diol]: the “Inhibition on CYP19a RP: Relative potency … (=1)” value at aromatase (CYP19) (setting [1]) is 12.4. The “aromatase inhibitory activity (in words)” value on aromatase (CYP19) (setting [2]) is reported as “significant aromatase inhibitory activity”.
As for `C[C@]12CC[C@H]3[C@@H](CC=C4C[C@@H](O)CC[C@@]43C)[C@@H]1C/C(=C\c1cccc(OCCCn3ccnc3)c1)[C@@H]2O` [Compound 20, 16-[3-{3-(imidazol-1-yl)propoxy}benzylidene]-5-androstene-3β,17β-diol], the melting point was in the range of 133 to 135 °C. For the same molecule, the “Inhibition on CYP19a RP: Relative potency … (=1)” value on aromatase (CYP19) is given as “IC50: 9.1 μM RP: 3.3”. The IC50 on aromatase (CYP19) (Substrate: 1β 3H-androstenedione/androstenedione 500 nm, read-out: Inhibition on CYP19a IC50) was 9.1 µM. For the same molecule, on aromatase (CYP19) (setting [2]), the “aromatase inhibitory activity (in words)” value is “significant aromatase inhibitory activity”.
For the molecule `C[C@]12CCC(=O)C=C1CCC1C2CC[C@]2(C)C(=O)/C(=C/c3cccc(OCCCn4ccnc4)c3)CC12` (stereo partly drawn) [Compound 22, 16-[3-{3-(imidazol-1-yl)propoxy}benzylidene]-4-androstene-3,17-dione], the “aromatase inhibitory activity (in words)” value on aromatase (CYP19) (setting [2]) is listed as “significant aromatase inhibitory activity”.
As for `CC(=O)O[C@H]1CC[C@@]2(C)C(=C/C(=N\OCCCn3ccnc3)[C@H]3[C@@H]4CC[C@H](OC(C)=O)[C@@]4(C)CC[C@@H]32)C1` [Compound 24, 7-[O-{3-(imidazol-1-yl)propyl}oximino]-5-androstene-3β,17β-diol diacetate], the melting point is 180 to 182 °C. The IC50 at aromatase (CYP19) was found to be 3.1 µM. In addition, the “Inhibition on CYP19a RP: Relative potency … (=1)” value on aromatase (CYP19) (setting [1]) is reported as “IC50: 3.1 μM RP: 9.6”. In addition, the “aromatase inhibitory activity (in words)” value on aromatase (CYP19) (setting [2]) is given as “significant aromatase inhibitory activity”.
The matching figures for `C[C@]12CC[C@H]3[C@@H](/C(=N\OCCCn4ccnc4)C=C4C[C@@H](O)CC[C@@]43C)[C@@H]1CC[C@@H]2O` [Compound 25, 7-[O-{3-(Imidazol-1-yl)propyl}oximino]-5-androstene-3β,17β-diol]: 205 to 206 °C, 12 µM, “IC50: 12 μM RP: 2.5” and “significant aromatase inhibitory activity”.
`C[C@]12CC[C@H](O)CC1=CC[C@@H]1[C@@H]2CC[C@]2(C)C(=O)[C@@H](n3ccnc3)C[C@@H]12` [Compound 27, 16β-(Imidazol-1-yl)-17-oxo-5-androsten-3β-ol] had a melting point of 249 to 251 °C. The “Inhibition on CYP19a RP: Relative potency … (=1)” value at aromatase (CYP19) (setting [1]) was “IC50: 3.3 Mm RP: 9.0”. Moreover, the “aromatase inhibitory activity (in words)” value at aromatase (CYP19) (setting [2]) is reported as “significant aromatase inhibitory activity”.
